Data on five compounds can be found in patent US6680177B2, “Low molecular weight heparin assay, system and reagent therefor” (Cardiovascular Diagnostics, Inc., priority 2001, dated 2004).

Where a SMILES comes first, the peptide text is derived from it. Bridges are numbered along the chain shown (N, C = ends). [ ]: non-standard residue; d: D form. hArg = N=C(N)NCCCC[C@H](N)C(=O)O; Mpa = O=C(O)CCS

The test system of this assay is citrated whole blood (CWB). Briefly: Interference testing for Rapidpoint ENOX test in citrated whole blood. The assay is classed as biochemical. As to conditions: for EFFECT on ENOX test: CWB; for sensitivity of the ENOX test to the agent: in vitro, citrated whole blood.

On to `CC(=O)Oc1ccccc1C(=O)O` [Aspirin], for which the “sensitivity of the ENOX test to the agent” value (“sensitivity of the ENOX test” for short) is “insensitive”. Further, the “EFFECT on ENOX test” value (0-300 ug/ml) was “No effect at 0-300 ug/ml”. `N=C(N)NCCCC[C@@H]1NC(=O)CCSSC[C@@H](C(N)=O)NC(=O)[C@@H]2CCCN2C(=O)[C@H](Cc2c[nH]c3ccccc23)NC(=O)[C@H](CC(=O)O)NC(=O)CNC1=O` [Eptifibatide] ([Mpa][hArg]GDWPC-NH2; disulfide 1-7): the “sensitivity of the ENOX test” value is given as “insensitive”. Further, the “EFFECT on ENOX test” value (0-2600 ng/ml) is given as “No effect at 0-2600 ng/ml”.

Regarding `O=C(c1ccccc1)c1ccc2n1CCC2C(=O)O` (centres unmarked) [Ketorolac tromethamine], the “EFFECT on ENOX test” value (0-12 ng/ml) is recorded as “No effect at 0-12 ng/ml”. `O=[N+]([O-])OCC(CO[N+](=O)[O-])O[N+](=O)[O-]` [Nitroglycerin]: the “EFFECT on ENOX test” value (0-1000 ng/ml) is “No effect at 0-1000 ng/ml”.

Regarding `CCCCS(=O)(=O)N[C@@H](Cc1ccc(OCCCCC2CCNCC2)cc1)C(=O)O` [Tirofiban], the “sensitivity of the ENOX test” value was “insensitive”. In addition, the “EFFECT on ENOX test” value (0-5600 ng/ml) is “No effect at 0-5600 ng/ml”.
